# In patent US6376541B1, “Upregulation of endogenous prostaglandins to lower intraocular pressure” (Alcon Manufacturing, Ltd., priority 1998, dated 2002):
# Where two headings read alike, the source gives them in different places.
# Columns and labels:
# [1] = test system: cultured trabecular-meshwork cells; conditions: cited from earlier work
# [2] = test system: human corneal fibroblasts; assay: Induction of prostaglandin synthesis in cultured human corneal fibroblasts (enzyme immunoassay of conditioned medium); format: cell-based; conditions: 10 ng/ml
# Method: Primary human corneal fibroblasts were grown in culture from freshly denuded corneal stromal tissue from a donor. Cells (passage 4) were seeded into 12-well plates and grown to 80% confluency. Selected cells were then exposed to Interleukin-1 alpha (10 ng/ml final) in Ham's F-10 Nutrient mixture (HyClone Corporation) containing 10% fetal bovine serum by medium replacement in the wells. Control cells received medium devoid of this inflammatory cytokine. Cells were then incubated in a 37° C., 5% CO2, humidified incubator for 24 hours. Conditioned medium was then removed, centrifuged to remove any cellular debris (3 minutes at 2600 rpm and 4° C.), and analyzed for PGE2 and PGF2α, levels in the medium using specific enzyme immunoassay kits (Cayman Scientific). Cells in each well were counted, and prostaglandin levels normalized to the cell count for the respective wells.
# [3] = test system: human trabecular meshwork cells; assay: Induction of PGE2 synthesis in cultured human trabecular meshwork cells (14C-arachidonic acid, TLC); format: cell-based; conditions: 10 ng/ml each; for % of total CPM in PGE2 fraction (mean ± std dev): 17 hours then 14C-arachidonic acid for 4 hours
# Method: Primary human trabecular meshwork cells were grown in culture according to the method of Weinreb, et al. from a donor. Cells (passage 5) were seeded into 12-well plates and grown until they just reached confluency, with culture medium replacement every 3-4 days. Triplicate wells of cells were then exposed to interleukin-1 beta (10 ng/ml final), TGF-beta 1 (10 ng/ml final) or both in 1 ml of Ham's F-10 Nutrient Mixture (Gibco-BRL), containing 2 mM L-glutamine and 0.4 mg/ml bovine serum albumin (Sigma Chemical Co.). Control cells received medium devoid of IL-1β and TGF-β1. Cells were then incubated in a 37° C., 5% CO2, humidified incubator for 17 hours. ^14C-arachidonic acid (300,000 dpm) was added to each well, and the cells were returned to the incubator for an additional 4 hours. A modified Bligh & Dyer lipid extraction [Can. J. Biochem. Physiol. 37,911 (1959)] was then performed on the cells and supernatants. An aliquot of the extracted samples and fatty acid standards were spotted on a moderate hardness silica gel thin-layer chromatography plate (Alltech K5, 20×20 cm, 250 μm thick). The plate was developed in prostaglandin TLC solvent (11:5:2:10 ethyl acetate: 2,2,4-trimethylpentane: acetic acid: distilled water), air-dried, and standard bands were visualized with vaporization of iodine crystals. Each lane on the plate was divided into segments based upon the position of the standards, and each segment was scraped off of the plate with a razor blade into a glass scintillation vial. Opti-fluor scintillation cocktail (Packard) was added to each vial, and the samples were counted on a beta scintillation counter. The amount of each fraction was calculated as a percentage of total counts per minute (CPM) from that sample.
# fibroblasts = conditions: cited from earlier work
# [4] = 24 hours, conditioned medium, normalized to cell count
compound,measurement,setting,value
CNc1ccc2oc(C[C@H]3O[C@@]4(CC[C@H]3C)O[C@H]([C@H](C)C(=O)c3ccc[nH]3)[C@H](C)C[C@H]4C)nc2c1C(=O)O [lonophore A23187],effect on PGE2 synthesis,[1],stimulate PGE2 synthesis
INTERLEUKIN-1α: inflammatory cytokine Interleukin-1 alpha,"PGE2 produced per 100,000 cells in 24 hours (mean ± std dev)",[2]; [4],"48,736 ± 3597 PICOGRAMS"
same,"PGF2α produced per 100,000 cells in 24 hours (mean ± std dev)",[2]; [4],1704 ± 367 PICOGRAMS
same,elevation of the level of PGE2,[2]; versus unstimulated cells,> 47 fold
same,elevation of the level of PGF2α,[2]; versus unstimulated cells,> 3 fold
"IL-1β: interleukin-1 beta, prostaglandin upregulating agent (Genzyme)",increase in PGE2 synthesis over non-treated control,[3],440%
same,% of total CPM in PGE2 fraction (mean ± std dev),[3],9.34 ± 0.70%
NCCc1c[nH]cn1 [histamine],effect on PGE2 synthesis,[1],stimulate PGE2 synthesis
CCCCC/C=C\C/C=C\C/C=C\C/C=C\CCCC(=O)O [arachidonic acid],effect on PGE2 synthesis,[1],stimulate PGE2 synthesis
CCCCC/C=C\C\C=C/C=C/C=C/[C@@H](SC[C@H](NC(=O)CC[C@H](N)C(=O)O)C(=O)NCC(=O)O)[C@@H](O)CCCC(=O)O [leukotriene C4],effect on PGE2 synthesis,[1],stimulate PGE2 synthesis
PDGF,stimulation of PGE2 synthesis,fibroblasts,10-15 fold
same,stimulation of PGE2 synthesis,fibroblasts; in the presence of exogenous arachidonic acid,28 fold
"TGF-β1: Transforming Growth Factor beta 1, prostaglandin upregulating agent",increase in PGE2 synthesis over non-treated control,[3],74%
same,% of total CPM in PGE2 fraction (mean ± std dev),[3],3.01 ± 0.38%
